In paper PMC7368380 (Journal of the American Chemical Society, 2018):

Key:
[1] = solubility; type: physicochemical; settings: qualitative statement; prevented NMR
[2] = MALDI-TOF MS-based hydrogen-deuterium exchange assay; type: physicochemical; settings: H-D exchange, MALDI-TOF MS read-out (Fig. S10)
[3] = biological target: T1, carboxypeptidase Y (Saccharomyces cerevisiae, UniProt P00729); test: carboxypeptidase Y digestion; type: in vitro ADME; settings: carboxypeptidase Y digestion for 18 h; analysis by MS (Fig. S11)
T1 sequence (P00729 112-532): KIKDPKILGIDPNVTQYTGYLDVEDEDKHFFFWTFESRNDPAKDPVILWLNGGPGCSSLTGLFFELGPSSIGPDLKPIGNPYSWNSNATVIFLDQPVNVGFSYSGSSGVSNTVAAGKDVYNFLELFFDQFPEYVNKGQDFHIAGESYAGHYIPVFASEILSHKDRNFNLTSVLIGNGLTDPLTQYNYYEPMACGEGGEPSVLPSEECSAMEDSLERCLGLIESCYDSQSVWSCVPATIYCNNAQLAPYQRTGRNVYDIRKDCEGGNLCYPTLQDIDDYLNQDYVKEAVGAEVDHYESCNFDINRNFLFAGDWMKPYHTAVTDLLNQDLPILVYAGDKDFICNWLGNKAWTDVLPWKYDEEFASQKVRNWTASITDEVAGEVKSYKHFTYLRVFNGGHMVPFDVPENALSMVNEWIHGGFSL

[4] = biological target: fluorescein-labeled, wild-type FusA leader peptide (Thermobifida fusca); test: fluorescence polarisation

fusilassin
solubility characteristics [1]: poor
time to full deuteration [2]: ~ 60 min
outcome of carboxypeptidase Y digestion [3]: vast majority of the fusilassin peptide remained intact

FusE-D74A (natural protein)
fold reduction of affinity against wild-type FusE [4]: 8 fold

FusE G31V variant (natural protein)
fold reduction of leader peptide binding against wild-type FusE [4]: 2 fold

FusE-L78A (natural protein)
fold reduction of affinity against wild-type FusE [4]: 10 fold
